Test [1] deals with Disintegrin and metalloproteinase domain-containing protein 17 (Homo sapiens, UniProt P78536). Kind of test: Inhibition of TACE.
The target in test [2] is 72 kDa type IV collagenase (Homo sapiens, UniProt P08253). Kind of test: Inhibition of MMP2.
A further test addresses Neutrophil collagenase (Homo sapiens, UniProt P22894). Kind of test: Inhibition of MMP8.
In test [3] the target is Matrix metalloproteinase-9 (Homo sapiens, UniProt P14780). Kind of test: Inhibition of MMP9.
Sequence of Matrix metalloproteinase-9 (P14780 whole entry): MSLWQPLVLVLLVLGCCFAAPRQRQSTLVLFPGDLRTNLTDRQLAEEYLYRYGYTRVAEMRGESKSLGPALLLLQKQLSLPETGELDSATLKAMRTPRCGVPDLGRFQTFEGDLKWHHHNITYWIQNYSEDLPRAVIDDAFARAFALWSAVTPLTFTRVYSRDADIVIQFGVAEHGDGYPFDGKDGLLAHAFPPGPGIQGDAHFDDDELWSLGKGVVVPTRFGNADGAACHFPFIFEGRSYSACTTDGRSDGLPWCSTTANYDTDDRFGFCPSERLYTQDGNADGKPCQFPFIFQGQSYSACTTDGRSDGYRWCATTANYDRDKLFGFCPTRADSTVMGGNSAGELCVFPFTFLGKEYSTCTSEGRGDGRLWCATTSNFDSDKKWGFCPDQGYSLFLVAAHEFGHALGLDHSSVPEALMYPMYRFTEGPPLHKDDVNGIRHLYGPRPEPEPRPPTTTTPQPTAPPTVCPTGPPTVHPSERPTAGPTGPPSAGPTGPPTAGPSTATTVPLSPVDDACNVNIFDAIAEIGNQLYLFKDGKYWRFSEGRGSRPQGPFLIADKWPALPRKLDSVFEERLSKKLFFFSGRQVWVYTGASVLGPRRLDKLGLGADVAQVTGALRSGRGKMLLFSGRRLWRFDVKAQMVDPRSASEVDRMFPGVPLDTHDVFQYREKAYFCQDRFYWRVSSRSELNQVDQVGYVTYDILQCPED
The target of a further test is T1, Matrilysin (Homo sapiens, UniProt P09237).
T1 sequence (P09237 whole entry): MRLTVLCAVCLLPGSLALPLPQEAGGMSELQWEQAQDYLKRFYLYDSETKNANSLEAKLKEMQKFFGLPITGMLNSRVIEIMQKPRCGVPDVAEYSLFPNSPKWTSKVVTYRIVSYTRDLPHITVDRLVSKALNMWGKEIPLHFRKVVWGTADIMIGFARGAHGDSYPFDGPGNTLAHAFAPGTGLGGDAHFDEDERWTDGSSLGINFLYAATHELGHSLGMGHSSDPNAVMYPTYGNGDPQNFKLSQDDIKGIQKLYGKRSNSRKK
Briefly: Inhibition of MMP7.

The next test has as its target Collagenase 3 (Homo sapiens, UniProt P45452). Kind of test: Inhibition of MMP13.

pKi: −log10 of the molar value.

This is an account of results in ChEMBL document CHEMBL1140798, “Novel thiol-based TACE inhibitors. Part 2: Rational design, synthesis, and SAR of thiol-containing aryl sulfones” (Bioorg Med Chem Lett, 2008).

Sequence of Disintegrin and metalloproteinase domain-containing protein 17 (P78536 whole entry, the tested form may be a part): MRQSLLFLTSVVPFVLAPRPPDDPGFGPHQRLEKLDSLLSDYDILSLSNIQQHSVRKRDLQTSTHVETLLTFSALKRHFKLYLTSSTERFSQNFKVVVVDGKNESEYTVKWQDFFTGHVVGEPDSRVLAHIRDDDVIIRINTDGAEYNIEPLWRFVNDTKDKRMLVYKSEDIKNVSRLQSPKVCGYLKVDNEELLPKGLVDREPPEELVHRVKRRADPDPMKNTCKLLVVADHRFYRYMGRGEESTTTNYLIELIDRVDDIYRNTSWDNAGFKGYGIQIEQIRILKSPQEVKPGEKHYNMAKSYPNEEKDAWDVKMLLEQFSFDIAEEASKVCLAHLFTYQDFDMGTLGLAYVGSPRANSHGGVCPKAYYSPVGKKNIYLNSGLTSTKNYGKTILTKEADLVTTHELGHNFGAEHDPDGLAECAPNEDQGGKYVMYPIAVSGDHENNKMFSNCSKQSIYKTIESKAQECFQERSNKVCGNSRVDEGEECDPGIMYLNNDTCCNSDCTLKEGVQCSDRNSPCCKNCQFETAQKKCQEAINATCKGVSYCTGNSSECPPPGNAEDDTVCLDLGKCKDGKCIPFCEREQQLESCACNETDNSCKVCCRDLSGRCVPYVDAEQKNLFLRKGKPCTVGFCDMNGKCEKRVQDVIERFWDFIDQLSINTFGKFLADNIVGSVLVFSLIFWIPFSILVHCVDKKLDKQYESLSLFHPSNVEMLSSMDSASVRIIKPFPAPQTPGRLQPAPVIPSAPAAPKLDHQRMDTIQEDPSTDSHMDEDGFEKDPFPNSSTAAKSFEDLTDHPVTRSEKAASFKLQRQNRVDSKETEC
Sequence of 72 kDa type IV collagenase (P08253 whole entry): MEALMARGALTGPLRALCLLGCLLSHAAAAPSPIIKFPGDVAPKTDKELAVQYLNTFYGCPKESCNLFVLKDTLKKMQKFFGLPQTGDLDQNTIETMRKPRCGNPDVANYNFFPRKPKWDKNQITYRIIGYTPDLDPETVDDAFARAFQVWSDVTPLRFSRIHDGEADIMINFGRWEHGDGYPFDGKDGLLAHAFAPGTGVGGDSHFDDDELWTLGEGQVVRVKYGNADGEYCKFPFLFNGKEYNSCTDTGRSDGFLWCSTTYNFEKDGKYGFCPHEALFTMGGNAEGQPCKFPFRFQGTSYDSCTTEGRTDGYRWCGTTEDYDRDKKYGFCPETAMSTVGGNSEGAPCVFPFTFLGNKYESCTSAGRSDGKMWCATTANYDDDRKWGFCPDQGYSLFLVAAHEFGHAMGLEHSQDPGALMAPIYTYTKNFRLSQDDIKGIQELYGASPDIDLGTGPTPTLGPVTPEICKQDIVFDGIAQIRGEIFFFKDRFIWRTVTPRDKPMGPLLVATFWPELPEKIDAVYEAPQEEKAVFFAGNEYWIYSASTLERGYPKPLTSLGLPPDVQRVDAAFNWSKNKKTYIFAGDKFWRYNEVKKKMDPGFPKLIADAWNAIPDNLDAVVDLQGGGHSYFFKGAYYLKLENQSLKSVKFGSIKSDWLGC
Sequence of Neutrophil collagenase (P22894 whole entry): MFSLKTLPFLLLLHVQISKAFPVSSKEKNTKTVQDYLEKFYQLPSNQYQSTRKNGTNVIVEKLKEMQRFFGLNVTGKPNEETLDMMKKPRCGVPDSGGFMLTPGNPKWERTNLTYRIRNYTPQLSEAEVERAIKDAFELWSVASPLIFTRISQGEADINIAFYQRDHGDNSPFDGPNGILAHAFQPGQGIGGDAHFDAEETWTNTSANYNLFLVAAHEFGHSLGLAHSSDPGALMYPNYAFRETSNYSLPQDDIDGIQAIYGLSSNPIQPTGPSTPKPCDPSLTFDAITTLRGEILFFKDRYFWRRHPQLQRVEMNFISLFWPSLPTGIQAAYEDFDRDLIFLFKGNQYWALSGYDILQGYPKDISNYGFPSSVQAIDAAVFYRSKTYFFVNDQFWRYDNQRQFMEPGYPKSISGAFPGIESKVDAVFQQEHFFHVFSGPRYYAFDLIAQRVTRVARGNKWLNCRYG

In test [1], `CC#CCNc1ccc(S(=O)(=O)CCS)cc1` showed a pKi of 8.70. Same read-out and setting: in the case of `CC#CCOc1ccc(S(=O)(=O)[C@@H]2CCC[C@@H](S)C2)cc1` it was 7.52. Still for that read-out and setting: in the case of `CC#CCOc1ccc(S(=O)(=O)CCS)cc1` it was 8.10. The same measure, in the same setting: to `CC#CCNc1ccc(S(=O)(=O)[C@@H]2CCC[C@@H](S)C2)cc1` belongs 7.77; to `CC#CCNc1ccc(S(=O)(=O)CCCS)cc1`, 8.35. The compound `CC#CCOc1ccc(S(=O)(=O)C2CCC(S)C2)cc1` (stereo unspecified) showed a pKi in test [1] of 7.30. Consider `CC#CCOc1ccc(S(=O)(=O)CCCS)cc1`, for which the pKi in test [2] was 5.89; at Neutrophil collagenase, 5.57; in test [3], 5.20; on Matrilysin it was less than 5.60; on Collagenase 3 it was 5.77.

Broadly, the pKi is −log10 of the Ki, conventionally taken in molar units. A lower pKi goes with a large Ki.
